Laboratory results published in patent US11054425B2, “System and method for identification and characterization of transglutaminase species” (Roche Sequencing Solutions, Inc., priority 2014, dated 2021).
No end group written: not given here. *: point of attachment. Cbz = O=C(OCc1ccccc1)*

B1: KalbTGt3: KalbTG enzyme from EcSlyD2-Xa-KalbTGt3-8×His after factor Xa and trypsin digest (protein)
chain: APLAPPLAEDRSYRTWRVEDYVEAWERYHGREMTEDERENLARGCIGVTVVNLNREDLSNPPLNLSFGSLRTAEAVQAALNKIVDTHPSPAQYEAAVAKDPILKRLKNVVKALPSWIDSAKLKASIFSKRFYSWQNPDWSEERAHTTYRPDRETDQVDMSTYRYRARPGYVNFDYGWFDQDTNTWWHANHEEPRMVVYQSTLRHYSRPLQDFDEQVFTVAFAKKDGGGSGHHHHHHHH
modifications: synthetic peptide sequence - KalbTGt3-8xHis-tag (post-trypsin digest); K-albida_MTG; 8xHis-tag
notes: KalbTG enzyme from EcSlyD2-Xa-KalbTGt3-8×His after factor Xa and trypsin digest
B2: KalbTGt1: KalbTG enzyme without propeptide, expressed and purified with ammonium (protein)
chain: MLAPPLAEDRSYRTWRVEDYVEAWERYHGREMTEDERENLARGCIGVTVVNLNREDLSNPPLNLSFGSLRTAEAVQAALNKIVDTHPSPAQYEAAVAKDPILKRLKNVVKALPSWIDSAKLKASIFSKRFYSWQNPDWSEERAHTTYRPDRETDQVDMSTYRYRARPGYVNFDYGWFDQDTNTWWHANHEEPRMVVYQSTLRHYSRPLQDFDEQVFTVAFAKKDGHHHHHHHH
modifications: synthetic peptide sequence - KalbTGt1-8xHis; K-albida_MTG; 8xHis-tag
notes: KalbTG enzyme without propeptide, expressed and purified with ammonium
B3: S. mobaraensis MTG: commercially available Streptomyces mobaraensis microbial transglutaminase (protein)
chain: MRIRRRALVFATMSAVLCTAGFMPSAGEAAADNGAGEETKSYAETYRLTADDVANINALNESAPAASSAGPSFRAPDSDDRVTPPAEPLDRMPDPYRPSYGRAETVVNNYIRKWQQVYSHRDGRKQQMTEEQREWLSYGCVGVTWVNSGQYPTNRLAFASFDEDRFKNELKNGRPRSGETRAEFEGRVAKESFDEEKGFQRAREVASVMNRALENAHDESAYLDNLKKELANGNDALRNEDARSPFYSALRNTPSFKERNGGNHDPSRMKAVIYSKHFWSGQDRSSSADKRKYGDPDAFRPAPGTGLVDMSRDRNIPRSPTSPGEGFVNFDYGWFGAQTEADADKTVWTHGNHYHAPNGSLGAMHVYESKFRNWSEGYSDFDRGAYVITFIPKSWNTAPDKVKQGWP
modifications: protein-glutamine gamma-glutamyltransferase
notes: commercially available Streptomyces mobaraensis microbial transglutaminase

Columns and labels:
S. mobaraensis MTG = test: GLDH-coupled assay in solution (NADH oxidation); format: biochemical, Streptomyces mobaraensis; settings: enzyme MTG; glutamine-donor 0 to 1 mM, cadaverine 1 mM, 37° C.
Method: (§1) For the GLDH coupled assay, to determine whether the KalbTG peptides selected in the array assay were also preferred substrates in a solution reaction and to quantify cross-reactivity of KalbTG and S. mobaraensis MTG with various substrates, a continuous glutamate dehydrogenase (GLDH)-coupled assay for S. mobaraensis MTG activity (see Oteng-Pabi, et al., 2013. Analytical biochemistry 441(2): 169-173) was applied.
(§2) For glutamine substrate evaluation, the assay was performed in a transparent 96-well microtiter plate in the presence of 500 μM α-ketoglutarate, 500 μM or 1 mM cadaverine as Amine donor substituting for a lysine-containing peptide, 2 U ml^−1 of glutamate dehydrogenase (GLDH), 500 μM NADH and glutamine-containing substrate peptide (Z-[[…] (SEQ ID NO:77)], Z-[[…] (SEQ ID NO:78)], Z-[[…] (SEQ ID NO:75)], Z-[[…] (SEQ ID NO:79)], Z-[[…] (SEQ ID NO:80)], Z-[[…] (SEQ ID NO:81)], Z-[[…] (SEQ ID NO:82)], Z-[[…] (SEQ ID NO:83)], Z-[[…] (SEQ ID NO:84)], Z-[[…] (SEQ ID NO:85)], Z-[[…] (SEQ ID NO:86)], Z-[[…] (SEQ ID NO:76)] or Z-[[…] (SEQ ID NO:87)]) concentrations ranging between 0 and 1 mM in 200 mM MOPS, 1 mM EDTA pH 7.2 (total volume per well 200 μl).
(§3) Reactions were started by the addition of 5 μg ml^−1 of S. mobaraensis MTG or KalbTG and the oxidation of NADH was continuously recorded at 340 nm for 60 minutes using a Biotek Synergy H4 microplate reader, temperature controlled at 37° C., with short shaking intervals before each measurement. After a short lag phase where the GLDH was saturated by transglutaminase-mediated release of ammonia, linear rates of absorbance versus time corresponding to transglutaminase turnover were observed and subjected to Michaelis-Menten kinetic analysis. Rates of absorbance in millioptical density units per minute (mOD min^−1) were converted into molar rates of NADH turnover (pmol s^−1) using the formula of Equation 1 (previously determined by an NADH standard curve): Turnover rate=|Absorbance rate|*1.111 (Eq. 1)

KalbTG [1] = test: 5-mer peptide array, glutamine-substrate screening with biotinylated amine donor; format: biochemical, Kutzneria albida; settings: incorporation of biotinylated amine-donor on 5-mer peptide array
Method: To identify potential acyl-donor and amine-donor substrates of the K. albida transglutaminase, high-throughput screening on 5-mer peptide arrays was performed (FIGS. 4A and 4B). An activity of at least 1.65 U/mg for both the SlyD-fused and the mature KalbTG enzymes was confirmed by commercial assay (Zedira MTG-ANiTA-KIT; compared to 4.3 U mg^−1 by the MTG supplied with the kit and a 0.07 U/mg blank value with BSA). The assay used β-casein as a cross-linking substrate and detected deamidation by a glutamate dehydrogenase dependent oxidation of NADPH. Specific recognition motifs were identified by assaying KalbTG with peptide arrays prepared by maskless array synthesis (U.S. Pat. Pub. No 2015/0185216 to Albert et al. filed on 19 Dec. 2014). The efficiency of the transamidation reaction between 1.4 million unique 5-mer peptides and a biotinylated amine donor was quantified on two arrays in parallel and the sequences of the peptides with the highest turnovers were determined (FIG. 4A). The nine best peptides were resynthesized and tested for KalbTG activity in a standalone GLDH-coupled assay. Note that the array signal for the sequence MLAQG (SEQ ID NO:13) is marked not applicable (n. a.) as this sequence was not included on the array. Similarly, measurement of a background signal was only applicable to experiments performed on the array.
For construction of the peptide array, a library of 1,360,732 unique 5-mer peptides was designed by using all combinations of 18 natural amino acids excluding cysteine and methionine, as well as any dimer or a longer repeat of the same amino acid, and any peptide containing a dipeptide selected from HR, RH, HK, KH, RK, KR, HP, and PQ sequences. The library was synthesized in duplicate on the same array by using maskless light-directed peptide array synthesis. Each 5-mer peptide was flanked on both the N-terminus and C-terminus by 3 amino acid-long linkers synthesized by using mixture of glycine and serine having a 3:1 ratio.
To test KalbTG specificity for glutamine-containing substrate, N-(biotinyl)cadaverine was used as a substitute for a lysine substrate to biotinylate glutamine-peptides on a peptide array. KalbTG labeling reaction was performed in 1200 μL 100 mM Tris-HCl pH 8, 1 mM DTT, 50 μM N-(biotinyl)cadaverine, 0.2 ng μl^−1 KalbTG in SecureSeal™ chamber (Grace Bio-Labs) at 37° C. for 45 minutes. After incubation the chamber was removed and the array was washed in 20 mM Tris-HCl, pH7.8, 0.2 M NaCl, 1% SDS for 1 minute followed by a 1 minute wash in 20 mM Tris-HCl. Biotin linked to the array was stained with 0.3 μg ml^−1 Cy5-streptavidin in 10 mM Tris-HCl, pH7.4, 1% alkali-soluble casein, 0.05% TWEEN-20 non-ionic detergent at room temperature for 1 hour. Cy5 fluorescence intensity was measured with a fluorescence scanner at a resolution of 2 μm and a wavelength of 635 nm.

KalbTG [2] = test: GLDH-coupled assay in solution (NADH oxidation); format: biochemical, Kutzneria albida
Method: KalbTG activity was obtained by measuring incorporation of a biotinylated amine-donor on the peptide array and rates of NADH oxidation at 340 nm and 37° C. in the presence of amine-donor substrate (500 μM) in the GLDH-coupled assay using 100 μM each of nine of the best-performing array-selected glutamine-containing substrates and of two S. mobaraensis MTG glutamine-containing substrates. […] Testing of the top sequences in Table 1 confirmed YRYRQ (SEQ ID NO: 1) and RYRQR (SEQ ID NO 14) as the top performing 5-mer substrates, with turnover rates of 3.52±0.08 pmol NADH s^−1 and 3.60±0.12 pmol NADH s^−1, respectively.
With reference to Table 2, KalbTG activity was obtained by measuring incorporation of a biotinylated glutamine-donor and rates of NADH oxidation at 340 nm and 37° C. in the presence of glutamine-donor substrate (200 μM) in the GLDH-coupled assay using 100 μM each of i) six of the top-performing array-selected lysine substrates, ii) cadaverine, and iii) preferred MTG lysine substrate ARSKL (SEQ ID NO:30). […] This is a small but significant increase over cadaverine (3.51±0.12 pmol s^−1) or ARSKL (SEQ ID NO:30) (3.87±0.31 pmol s^−1), a peptide previously established as a preferred MTG lysine donor motif on the peptide array. Additional details on the S. mobaraensis MTG substrate peptide ARSKL (SEQ ID NO:30) can be found in U.S. Provisional Patent Application Ser. No. 62/094,495 to Albert et al. filed on Dec. 19, 2014.
as §1, §2
For amine substrate evaluation, assay conditions were the same as for glutamine substrate evaluation with the exception that 100 μM each of amine substrate (Z-[[…] (SEQ ID NO:88)], Z-[[…] (SEQ ID NO:89)], Z-[[…] (SEQ ID NO:90)], Z-[[…] (SEQ ID NO:91)], Z-[[…] (SEQ ID NO:92)], Z-[[…] (SEQ ID NO:93)], Z-[[…] (SEQ ID NO:94)], Z-[[…] (SEQ ID NO:95)] or cadaverine) and 200 μM glutamine donor (Z-[[…] (SEQ ID NO:75)] or Z-[[…] (SEQ ID NO:76)]) were used.
as §3, with “Rates of absorbance in millioptical density units per minute (mOD min^−1) were converted into molar rates of NADH turnover (pmol s^−1) using the formula of Equation 1 (previously determined by an NADH standard curve): Turnover rate=|Absorbance rate|*1.111 (Eq. 1)” left out

[3] = system: Z-[GGGYRYRQGGGG (SEQ ID NO:75)]-OH; test: GLDH assay of transglutaminase enzyme activity after storage; format: biochemical; settings: 200 μM glutamine substrate, 10 mM cadaverine, 37° C., pH 7.4
Method: A further experiment was performed to determine the activity of KalbTG enzymes prepared from two different constructs, and stored at two different temperatures. The KalbTGt3 (SEQ ID NO:10) and KalbTGt1 (SEQ ID NO: 12) enzymes tested were obtained respectively from the EcSlyD2-Xa-KalbTGt3-8×His-tag construct (SEQ ID NO:8) and the EcSlyD2-Xa-KalbTGt1-8×His-tag construct (SEQ ID NO:11) described in Example 3. The activity of the two KalbTG enzymes was tested after storage at either 4° C. or −20° C. and compared against the activity of commercially available S. mobaraensis MTG according to a published protocol (Oteng-Pabi, et al., 2013. Analytical biochemistry 441(2): 169-173). In particular, assays were performed at 37° C. in 200 μl total volume. The assay mixture included 200 mM MOPS, 1 mM EDTA, and 1 mM DTT at pH 7.4. Further, α-ketoglutarate and NADH were added at a concentration of 500 μM, along with 2 U/ml GLDH, and between 0.1 μg and 1.0 μg of one of the transglutaminase enzymes. The glutamine substrate was 200 μM Z-[[…] (SEQ ID NO:75)]-OH, and the amine donor was 10 mM cadaverine, where Z represents a carboxybenzyl group. All data were collected in triplicate (average of 3 wells in a microtiter plate) and baseline activity (buffer without enzyme) subtracted.

[4] = enzyme KalbTG, glutamine-donor 0 to 1 mM, cadaverine 1 mM, 37° C.

Molecule	Km (S. mobaraensis MTG) [µM]	Vmax (S. mobaraensis MTG) [pmol/s]	kcat (S. mobaraensis MTG) [S^−1]	Array signal (log2) (KalbTG [1])	Activity ([3]; storage 4 ° C.) [μmol NH3/min/mg Enzyme]	Activity ([3]; storage −20 ° C.) [μmol NH3/min/mg Enzyme]	other results
YRYRQ (Cbz-YRYRQ) [KalbTG glutamine-donor (Q-tag) 5-mer]	644 ± 58.4	21.50 ± 1.00	0.93	8.99	–	–	Reaction rate in solution (KalbTG [2]; 100 μM glutamine-containing substrate, 500 μM amine-donor substrate, NADH oxidation at 340 nm, 37° C.): 3.52 ± 0.08 pmol/s; Km (KalbTG [2]; enzyme KalbTG): 2000 µM; Km (KalbTG [2]; [4]): 2150 ± 291 µM; Vmax (KalbTG [2]; [4]): 73.18 ± 7.27 pmol/s; kcat (KalbTG [2]; [4]): 1.92 S^−1
DYALQ (Cbz-DYALQ) [preferred S. mobaraensis MTG glutamine-containing substrate, reference compound]	847 ± 138	36.66 ± 3.33	1.39	7.22	–	–	reactivity of KalbTG towards substrate (KalbTG [2]; kinetics, varying substrate concentrations): completely unreactive
B1	–	–	–	–	0.1501 ± 0.0011	0.1528 ± 0.0400	–
B2	–	–	–	–	1.4099 ± 0.1806	0.8630 ± 0.0259	–
B3	–	–	–	–	–	1.1348 ± 0.0059	–
